US11912682B2, “Isoindolinone compounds” (Monte Rosa Therapeutics, Inc., priority 2021, dated 2024)
Where two headings read alike, the source gives them in different places.

Assays:
[1] = target: Full length wild-type cereblon CRBN (Homo sapiens (Human), UniProt Q96SW2); assay: fluorescence polarization (FP) assay, cereblon binding
Excerpt: Compound activity was monitored in a fluorescence polarization (FP) homogeneous assay using 1-[5-({2-[2-(2-{[2-(2,6-dioxopiperidin-3-yl)-1,3-dioxo-2,3-dihydro-1H-isoindol-4-yl]oxy}acetamido)ethoxy]ethyl}carbamoyl)pentyl]-3,3-dimethyl-2-[(1E,3E)-5-[(2E)-1,3,3-trimethyl-5-sulfo-2,3-dihydro-1H-indol-2-ylidene]penta-1,3-dien-1-yl]-3H-indol-1-ium-5-sulfonate as a fluorescent probe. Unless otherwise stated, all reagents were purchased from Sigma Aldrich. […] Full length wild-type cereblon CRBN (80.0 nM, 10 μL) was incubated in assay buffer containing 20 mM HEPES (pH 8.0), […], 0.5 mM TCEP and 0.05% Tween 20 in the presence or absence of compound (300 nL). Inhibitors were stored as 10 mM DMSO stocks in an inert environment (low humidity, dark, low oxygen, room temperature) using the Storage Pod System. […] Following incubation at room temperature for 30 min, the assay was initiated by dispensing the probe to a final concentration of 5 nM (2.5 nL of a 20 μM stock) using the Echo ESXX. […] The FP signal was subsequently normalized to the no-compound control (i.e., DMSO). Analysis and IC50 values were derived using Dotmatics (Dotmatics UK) software.

GSPT1 = GSPT1 (Homo sapiens (Human), UniProt P15170+Q96SW2); assay: immunofluorescence assay for GSPT1 degradation in CAL-51 cells (Example 4); assay type: cell-based
Chain of GSPT1 (P15170 whole entry): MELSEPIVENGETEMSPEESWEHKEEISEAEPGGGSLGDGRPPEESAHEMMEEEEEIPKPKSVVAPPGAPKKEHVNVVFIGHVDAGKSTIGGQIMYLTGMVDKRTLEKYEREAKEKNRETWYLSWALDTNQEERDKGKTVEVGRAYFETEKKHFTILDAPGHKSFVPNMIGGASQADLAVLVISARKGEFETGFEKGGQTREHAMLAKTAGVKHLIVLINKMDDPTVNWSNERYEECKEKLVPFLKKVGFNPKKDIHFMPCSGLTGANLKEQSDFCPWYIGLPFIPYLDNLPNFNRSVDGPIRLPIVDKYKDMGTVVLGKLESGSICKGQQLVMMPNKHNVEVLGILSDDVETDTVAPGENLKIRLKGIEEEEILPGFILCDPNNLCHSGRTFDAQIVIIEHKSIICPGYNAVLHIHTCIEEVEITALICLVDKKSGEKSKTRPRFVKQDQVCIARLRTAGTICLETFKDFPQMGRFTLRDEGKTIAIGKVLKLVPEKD
Chain of GSPT1 (Q96SW2 whole entry): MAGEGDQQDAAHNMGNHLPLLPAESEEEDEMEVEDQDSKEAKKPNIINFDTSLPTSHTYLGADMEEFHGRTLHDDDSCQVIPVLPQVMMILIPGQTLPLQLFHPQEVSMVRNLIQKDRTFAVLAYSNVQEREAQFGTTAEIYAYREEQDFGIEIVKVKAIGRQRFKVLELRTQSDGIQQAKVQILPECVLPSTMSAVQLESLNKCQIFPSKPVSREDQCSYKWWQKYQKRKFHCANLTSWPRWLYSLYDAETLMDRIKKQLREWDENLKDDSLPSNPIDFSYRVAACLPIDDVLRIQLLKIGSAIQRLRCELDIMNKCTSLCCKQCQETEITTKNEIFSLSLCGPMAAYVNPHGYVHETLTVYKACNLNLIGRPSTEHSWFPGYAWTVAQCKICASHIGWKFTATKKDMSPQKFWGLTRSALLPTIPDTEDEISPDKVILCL
Chain of GSPT1 (Q16531 2-1140 partner): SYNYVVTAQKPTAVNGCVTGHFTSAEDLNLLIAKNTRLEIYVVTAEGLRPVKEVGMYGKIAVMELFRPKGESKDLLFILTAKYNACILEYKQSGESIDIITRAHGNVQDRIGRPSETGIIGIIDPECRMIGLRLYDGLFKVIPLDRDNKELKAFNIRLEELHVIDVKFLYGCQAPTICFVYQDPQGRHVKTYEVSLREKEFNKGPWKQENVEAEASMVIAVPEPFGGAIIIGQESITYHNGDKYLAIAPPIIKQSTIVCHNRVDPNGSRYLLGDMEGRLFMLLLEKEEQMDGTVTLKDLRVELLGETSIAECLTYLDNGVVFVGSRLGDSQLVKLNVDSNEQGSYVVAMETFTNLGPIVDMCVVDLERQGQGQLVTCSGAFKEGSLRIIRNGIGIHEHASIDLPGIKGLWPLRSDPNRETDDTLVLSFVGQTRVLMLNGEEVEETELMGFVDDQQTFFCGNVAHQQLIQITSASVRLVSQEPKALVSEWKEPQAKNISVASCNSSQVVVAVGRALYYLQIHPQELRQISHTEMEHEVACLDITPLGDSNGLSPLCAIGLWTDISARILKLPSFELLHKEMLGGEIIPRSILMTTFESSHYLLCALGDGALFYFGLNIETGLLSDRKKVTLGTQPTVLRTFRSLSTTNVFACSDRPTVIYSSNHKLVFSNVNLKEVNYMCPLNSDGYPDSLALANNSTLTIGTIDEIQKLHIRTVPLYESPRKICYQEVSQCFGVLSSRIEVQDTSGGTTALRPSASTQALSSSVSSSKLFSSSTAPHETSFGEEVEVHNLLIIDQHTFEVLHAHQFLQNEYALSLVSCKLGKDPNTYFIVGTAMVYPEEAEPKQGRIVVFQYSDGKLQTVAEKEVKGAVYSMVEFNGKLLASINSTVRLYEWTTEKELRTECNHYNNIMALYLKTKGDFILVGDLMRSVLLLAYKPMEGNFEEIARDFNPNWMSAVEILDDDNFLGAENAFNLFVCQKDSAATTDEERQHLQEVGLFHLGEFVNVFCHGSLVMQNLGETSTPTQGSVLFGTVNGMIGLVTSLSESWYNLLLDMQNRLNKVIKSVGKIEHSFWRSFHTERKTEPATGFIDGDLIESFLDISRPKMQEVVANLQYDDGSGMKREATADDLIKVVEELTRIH
Protocol: The representative compounds were tested in an immunofluorescence assay for their activity to bind to degrade GSPT1. CAL-51 cells were purchased from DSMZ (cat. Number ACC302), sub-cultured in 90% Dulbecco's MEM (4.5 g/L glucose, Gibco 11965) +10% heat inactivated FBS (BioConcept, 2-01F136I) and incubated at 37° C., 5% CO2. For the assay, imaging microtiterplate Cell Carrier 96 Ultra (Perkin Elmer 6055302) were pre-coated with Fibronectin (Sigma F085, 30 μl at 0.2 μg/ml) in PBS (100 μl, Gibco 14190) for 45 min at room temperature, rinsed with PBS and CAL-51 cells (30 K cells/well) were plated and let to adhere overnight. Cells were treated with compounds typically using a serial dilution ranging from 30 μM to 0.1 nM for 6 hours. Compounds were stored at 10 mM DMSO stocks. Vehicle (DMSO), positive (CC-885, 10 μM) and rescue controls (positive control plus 0.2 μM bortezomib) were also included atthis stage. Cells were subsequently rinsed with PBS and fixed in 10% Formalin solution (50 μl, Sigma HT5011)) for 20 mins at room temperature. Following three consecutive PBS washes (100 μl), cells were permeabilized in 0.1% Triton X-100 in PBS (Sigma 93443, 50 μl) for 15 mins at room temperature. Following three further PBS washes, 50 μl blocking buffer (1% BSA, Sigma A4503, in PBS) was added for 45 min for signal-to-noise reduction.
Primary antibody (human GSPT1, Sigma HPA052488) was diluted in blocking buffer (dil.1/300, 35 μl/well) and incubated with the cells overnight at 4° C. After three PBS washes, Alexa-fluor 488 coupled secondary antibodies (Invitrogen, A32731, dil.1/1000), Alexa-fluor 647-Phalloidin (Invitrogen, A22287, dil.1/200) and DAPI (Thermo, #62248, dil.1/1000) were diluted in blocking buffer and incubated with the samples for 2 hours at room temperature. After three final PBS washes, samples were conserved in 100 μl PBS in the dark, until measurement. Image acquisition was performed on the Operetta High-Content Imager (Perkin-Elmer). Fluorescence intensity of Alexa-Fluor 488 (GSPT1), Alexa-Fluor 647 (Actin) and DAPI (Nucleus) were measured. For the determination of GSPT1 DC50 values, a custom algorithm implemented in the PerkinElmer image analysis software Harmony-Acapella® was developed. After user-defined setting of adjustment parameters, the analysis was run identically without human intervention for all image fields. DAPI staining of the nuclei was used to determine the location of cells using standard nuclei detection modules. Segmentation artifacts were removed by threshold-based filters for area, roundness and intensity. The outline of the cells was determined analogously from the sum of the normalized, smoothed DAPI and Actin channel, starting from each nucleus. The Alexa-Fluor 488 (GSPT1) signal intensity in each cell was finally measured, in order to obtain a Mean intensity per cell. GSPT1 degradation (DC50) was calculated after normalization to controls and data import in CDD vault Database, using non-linear regression.

[2] = 6 hours, read-out: Activity for GSPT1 degradation, Code (DC50)
[3] = GSPT1 degradation, read-out: DC50 value

Chain of Full length wild-type cereblon CRBN (Q96SW2 whole entry): as the sequence (Q96SW2 whole entry) above

Structure (SMILES)	IC50 ([1]; read-out: rFP IC50) [nM]	DC50 (GSPT1; [2]) [nM]	IC50 ([1]; read-out: IC50 value) [nM]	DC50 (GSPT1; [3]) [nM]	IC50 ([1]; IC50 value) [nM]	DC50 (GSPT1; read-out: Activity for GSPT1 degradation, Code (DC50), 6 hours) [nM]
CC(C)(C)c1cc(NC(=O)OCc2ccc3c(c2)C(=O)N(C2CCC(=O)NC2=O)C3)ccn1 (stereo not shown) [Compound 114]	< 500	< 30	–	–	–	–
O=C1CCC(N2Cc3ccc(COC(=O)Nc4cc(F)c(-c5ccccc5)c(F)c4)cc3C2=O)C(=O)N1 (stereo not shown) [Compound 134, (2-(2,6-dioxopiperidin-3-yl)-3-oxoisoindolin-5-yl)methyl(2,6-difluoro-[1,1′-biphenyl]-4-yl)carbamate]	> 1700	30 to 300	–	–	–	–
Cc1ccc(NC(=O)OCc2ccc3c(c2)C(=O)N(C2CCC(=O)NC2=O)C3)cc1OC(F)F (stereo not shown) [Compound 24]	–	< 30	< 1100	≤ 30	–	–
Cc1ccc(NC(=O)OCc2ccc3c(c2)C(=O)N(C2CCC(=O)NC2=O)C3)cc1C#N (stereo not shown) [Compound 110, (2-(2,6-dioxopiperidin-3-yl)-3-oxoisoindolin-5-yl)methyl(3-cyano-4-methylphenyl)carbamate]	< 500	–	< 500	≤ 30	< 1100	< 30
N#Cc1cc(Cl)cc(NC(=O)OCc2ccc3c(c2)C(=O)N(C2CCC(=O)NC2=O)C3)c1 (stereo not shown) [Compound 111, (2-(2,6-dioxopiperidin-3-yl)-3-oxoisoindolin-5-yl)methyl (3-chloro-5-cyanophenyl)carbamate]	< 500	30 to 300	–	–	–	–
O=C1CCC(N2Cc3ccc(COC(=O)Nc4ccc(-c5ccccn5)cc4F)cc3C2=O)C(=O)N1 (stereo not shown) [Compound 135, (2-(2,6-dioxopiperidin-3-yl)-3-oxoisoindolin-5-yl)methyl (2-fluoro-4-(pyridin-2-yl)phenyl)carbamate]	< 500	< 30	–	≤ 30	–	–
O=C1CCC(N2Cc3ccc(COC(=O)Nc4cc(OCCN5CCOCC5)cc(OC(F)(F)F)c4)cc3C2=O)C(=O)N1 (stereo not shown) [Compound 106]	–	30 to 300	< 1100	–	–	–
O=C1CCC(N2Cc3ccc(COC(=O)Nc4ccc(-c5ccccc5F)nc4)cc3C2=O)C(=O)N1 (stereo not shown) [Compound 84]	< 500	< 30	–	≤ 30	–	–
Cc1c(F)cc(NC(=O)OCc2ccc3c(c2)C(=O)N(C2CCC(=O)NC2=O)C3)cc1Cl (stereo not shown) [Compound 116]	> 1700	30 to 300	–	–	–	–
CCc1cc(NC(=O)OCc2ccc3c(c2)C(=O)N(C2CCC(=O)NC2=O)C3)ccn1 (stereo not shown) [Compound 63]	< 500	> 300	–	–	–	–
Cc1c(Cl)cc(NC(=O)OCc2ccc3c(c2)C(=O)N(C2CCC(=O)NC2=O)C3)cc1CN1CCOCC1 (stereo not shown) [Compound 2]	–	< 30	< 1100	≤ 30	–	–
O=C1CCC(N2Cc3ccc(COC(=O)Nc4ccc5c(c4)CC(F)(F)O5)cc3C2=O)C(=O)N1 (stereo not shown) [Compound 113]	< 500	30 to 300	–	–	–	–
O=C1CCC(N2Cc3ccc(COC(=O)Nc4cc(F)cc(OC(F)(F)F)c4)cc3C2=O)C(=O)N1 (stereo not shown) [Compound 57]	> 1700	< 30	–	≤ 30	–	–
Cc1c(Cl)cc(NC(=O)OCc2ccc3c(c2)C(=O)N(C2CCC(=O)NC2=O)C3)cc1CN1CC2CCC(C1)O2 (stereo not shown) [Compound 21]	> 1700	< 30	–	≤ 30	–	–
Cc1cc(NC(=O)OCc2ccc3c(c2)C(=O)N(C2CCC(=O)NC2=O)C3)cc(C)n1 (stereo not shown) [Compound 7]	–	30 to 300	< 1100	–	–	–
O=C1CCC(N2Cc3ccc(COC(=O)Nc4ccc(C5CCC5)cc4)cc3C2=O)C(=O)N1 (stereo not shown) [Compound 104]	> 1700	30 to 300	–	–	–	–
Cc1cc(C)c(F)c(NC(=O)OCc2ccc3c(c2)C(=O)N(C2CCC(=O)NC2=O)C3)c1 (stereo not shown) [Compound 122, (2-(2,6-dioxopiperidin-3-yl)-3-oxoisoindolin-5-yl)methyl (2-fluoro-3,5-dimethylphenyl)carbamate]	< 500	30 to 300	–	–	–	–
